# Results as given in US20030187261A1, “Purine derivatives, process for their preparation and use thereof” (priority 2000, published 2003).
# What was measured:
# HIV-2 [1] = experiment: HIV-2-induced cytopathicity in MT-4 cells; type: cell-based; conditions: for HIV-2 MT-4 IC50: MT-4 cells, 5 days
# Experimental: (§6) The infected cell cultures were incubated at 37° C. for 5 days in a humidified CO2 incubator. The cytopathicity of the virus was examined by determination of MT-4 cell viability by trypan blue dye staining.
# HIV-2 [2] = experiment: anti-HIV-2 activity in CEM cells; type: cell-based
# Experimental: as §6
# CDC2 = biological target: T1, CDC2 (Homo sapiens, UniProt P06493); experiment: p34cdc2 (CDC2) kinase inhibition assay, histone H1 substrate; type: biochemical; conditions: Table 3
# T1 construct: made in house; host or cells: Sf9 insect cells, baculovirus co-infection
# T1 sequence (P06493 whole entry, species assumed): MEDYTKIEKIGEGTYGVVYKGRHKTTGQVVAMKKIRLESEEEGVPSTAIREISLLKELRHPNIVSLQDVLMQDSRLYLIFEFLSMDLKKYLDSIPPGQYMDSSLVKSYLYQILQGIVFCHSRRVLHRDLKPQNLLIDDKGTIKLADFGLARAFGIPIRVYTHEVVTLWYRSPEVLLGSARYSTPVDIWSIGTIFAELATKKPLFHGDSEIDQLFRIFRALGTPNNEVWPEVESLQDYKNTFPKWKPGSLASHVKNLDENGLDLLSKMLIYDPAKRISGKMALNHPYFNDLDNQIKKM
# T1 sequence (P14635 whole entry partner, species assumed): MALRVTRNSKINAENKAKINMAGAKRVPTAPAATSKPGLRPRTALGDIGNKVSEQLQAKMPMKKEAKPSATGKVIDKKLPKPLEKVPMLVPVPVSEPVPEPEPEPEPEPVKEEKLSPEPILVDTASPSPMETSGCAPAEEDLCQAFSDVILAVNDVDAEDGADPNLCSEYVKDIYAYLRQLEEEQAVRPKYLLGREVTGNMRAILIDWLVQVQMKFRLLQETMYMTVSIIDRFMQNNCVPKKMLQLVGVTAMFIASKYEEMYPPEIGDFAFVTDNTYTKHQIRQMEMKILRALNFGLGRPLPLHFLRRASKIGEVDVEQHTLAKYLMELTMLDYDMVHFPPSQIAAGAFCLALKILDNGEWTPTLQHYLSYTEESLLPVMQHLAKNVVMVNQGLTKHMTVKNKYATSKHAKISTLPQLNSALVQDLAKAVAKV
# IκB-α = IκB-α kinase-inhibitory activity; type: biochemical; conditions: Table 3
# Source text: Modification of 2,6,9-trisubstituted purines by a catechol-like substituent at R6 leads to an increase in cdk inhibitory activity of the tested compounds.
# MPF activity = experiment: M-phase promoting factor inhibition in metaphase-arrested Xenopus egg extracts; type: biochemical; conditions: 1.5 h after addition
# Experimental: (§1) Metaphase-arrested Xenopus egg extracts were prepared as described previously by Blow “J. Cell Biol.” 1993, 122:993 and stored in liquid nitrogen. Demembranated Xenopus sperm nuclei were prepared as described by Blow & Laskey “Cell” 1986;47:577.
# (§2) At concentrations of cdk inhibitors (see Table 6) ranging from 0.1-2 μM, chromosomes remained highly condensed and no nuclear envelope was visible. At 4-6 μM and higher concentrations, interphase nuclei appeared with partially decondensed chromatin and an intact nuclear envelope. […] For the inhibition effect to become detectable, the first 15-min incubation of the interphase extract is probably sufficient.
# DNA synthesis = DNA synthesis in Xenopus egg extracts ([α-32P]dATP incorporation); type: biochemical; conditions: [α-32P]dATP incorporation after 3 h; read-out: Inhibition of DNA synthesis IC50
# Experimental: as §1, §2
# [3] = test system: T-lymphoblastic leukemia cell line CEM; experiment: MTT cytotoxicity assay, CEM; type: cell-based, human; conditions: 72 hours (TCS50 in the method)
# Source text: (§3) One of the parameters used as the basis for colorimetric assays is the metabolic activity of viable cells. For example, a microtiter assay, which uses the tetrazolium salt MTT, is now widely used to quantitate cell proliferation and cytotoxicity. For instance, this assay is used in drug screening programs and in chemosensitivity testing. Because only metabolically active cells cleave tetrazolium salts, these assays detect viable cells exclusively. In the case of MTT assay, yellow soluble tetrazolium salt is reduced to coloured water-insoluble formazan salt. After it is solubilized, the formazan formed can easily and rapidly be quantified in a conventional ELISA plate reader at 570 nm (maximum absorbance). The quantity of reduced formazan corresponds to number of vital cells in the culture. Human T-lymphoblastic leukemia cell line CEM; promyelocytic HL-60 and monocytic U937 leukemias; breast carcinoma cell lines MCF-7, BT549, MDA-MB-231; glioblastoma U87MG cells; cervical carcinoma cells HELA; sarcoma cells U20S and Saos2; hepatocellular carcinoma HepG2; mouse immortalized bone marrow macrophages B2.4 and B10A.4; P388D1 and L1210 leukemia; B16 and B16F10 melanomas were used for routine screening of the compounds according to the invention. The cells were maintained in Nunc/Corning 80 cm^2 plastic tissue culture flasks and cultured in cell culture medium (DMEM with 5 g/l glucose, 2 mM glutamine, 100 U/ml penicillin, 100 μg/ml streptomycin, 10% fetal calf serum and sodium bicarbonate).
# (§4) The cell suspensions that were prepared and diluted according to the particular cell type and the, expected target cell density (2500-30000 cells per well based on cell growth characteristics) were added by pipette (80 μl) into 96-well microtiter plates. Inoculates were allowed a pre-incubation period of 24 hours at 37° C. and 5% CO2 for stabilisation. Four-fold dilutions of the intended test concentration were added at time zero in 20 μl aliquots to the microtiter plate wells. Usually, test compound was evaluated at six 4-fold dilutions. In routine testing, the highest well concentration was 266.7 μM, but it can be the matter of change dependent on the agent. All drug concentrations were examined in duplicates. Incubations of cells with the test compounds lasted for 72 hours at 37° C., in 5% CO2 atmosphere and 100% humidity. At the end of incubation period, the cells were assayed by using the MTT. Ten microliters of the MTT stock solution were pipetted into each well and incubated further for 1-4 hours. After this incubation period, formazan was solubilized by addition of 100 μl/well of 10% SDS in water (pH=5.5) followed by further incubation at 37° C. overnight. The optical density (OD) was measured at 540 nm with the Labsystem iEMS Reader MF (UK). The tumour cell survival (TCS) was calculated using the following equation: TCS=(ODdrug exposed well/mean ODcontrol wells)×100%. The TCS50 value, the drug concentration lethal to 50% of the tumour cells, was calculated from the obtained dose response curves.
# (§5) The cytoxicity of novel compounds was tested on panel of cell lines of different histogenetic and species origin (Table 7). Equal activities were found in all tumour cell lines tested. […] Importantly, this observation distinguishes the purine derivatives of the invention from flavopiridol and related compounds, as their biological activity is dependent on p53 status.
# B16 melanoma = experiment: MTT cytotoxicity assay, B16; type: cell-based, mouse; conditions: 72 hours (TCS50 in the method)
# Source text: as §3, §4, §5
# normal human lymphocytes = experiment: concanavalin A induced lymphocyte proliferation, [3H]-TdR incorporation; type: cell-based; conditions: 72 hours, read-out: ED50 (the source's name)
# Experimental: Human heparinized peripheral blood was obtained from healthy volunteers by cubital vein punction. The blood was diluted in PBS (1:3) and mononuclear cells were separated by centrifugation in Ficoll-Hypaque density gradient (Pharmacia, 1.077 g/ml) at 2200 rpm for 30 minutes. Following centrifugation, lymphocytes were washed in PBS and resuspended in cell culture medium (RMPI 1640, 2 mM glutamine, 100 U/ml penicillin, 100 μg/ml streptomycin, 10% fetal calf serum and sodium bicarbonate).
# The cells were diluted at target density of 1100000 cells/ml and were added by pipette (180 μl) into 96/well microtiter plates. Four-fold dilutions of the intended test concentration were added at time zero in 20 μl aliquots to the microtiter plate wells. Usually, test compound was evaluated at six 4-fold dilutions. In routine testing, the highest well concentration was 266.7 μM. All drug concentrations were examined in duplicates. All wells with exception of unstimulated controls were activated with 50 μl of concanavalin A (25 μg/ml). Incubations of cells with test compounds lasted for 72 hours at 37° C., in 5% CO2 atmosphere and 100% humidity. At the end of incubation period, the cells were assayed by using the [^3H]-TdR:
# Cell cultures were incubated with […] (20 μl of stock solution 500 μCi/ml) per well for 6 hours at 37° C. and 5% CO2. The automated cell harvester was used to lyse cells in water and adsorb the DNA onto glass-fiber filters in the format of microtiter plate. The DNA incorporated [^3H]-TdR was retained on the filter while unincorporated material passes through. The filters were dried at room temperature overnight, sealed into a sample bag with 10-12 ml of scintillant. The amount of [^3H]-TdR present in each filter (in cpm) was determined by scintillation counting in a Betaplate liquid scintillation counter. The effective dose of immunosuppressant (ED) was calculated using the following equation: ED=(cpmdrug exposed well/mean cpmcontrol wells)×100%. The EDs50 value, the drug concentration inhibiting proliferation of 50% of lymphocytes, was calculated from the obtained dose response curves.
# To evaluate immunosuppressive activity of substituted adenines, their ability to inhibit polyclonal mitogen induced proliferation of normal human lymphocytes was analyzed (Table 8). […] Effective immunosuppressive dose of new derivatives under in vitro conditions was close to 1-20 μM.
# HIV-1 [4] = conditions: CEM cells
# Experimental: as §6
# HIV-1 [5] = conditions: for HIV-1 MT-4 IC50: MT-4 cells, 5 days
# Experimental: as §6
# MSV = experiment: MSV-induced transformation in murine embryo fibroblast C3H/3T3 cells; type: cell-based; conditions: day 6 post infection
# Experimental: The cells were seeded in 1-ml-wells of 48-well plates and exposed to 80 PFU (plaque forming units) for 60-90 min. The virus was subsequently removed and culture medium containing appropriate concentrations of the tested compounds was added (1 ml per well). At day 6-post infection, MSV-induced transformation of the cell culture was examined microscopically. The results are summarised in Table 9 in comparison with the data on the prototype compounds.
# retroviruses = experiment: anti-retroviral activity in vitro; type: cell-based
# Experimental: as §6
# the cells = conditions: at 100 μg/ml
structure (smiles),measurement,setting,value
CC(Cn1cnc2c(N(C)CCc3ccc(O)c(O)c3)nc(N)nc21)OCP(=O)(O)O (stereo not shown),HIV-2 MT-4 IC50,HIV-2 [1],3.2 µg/mL
same,HIV-2 CEM IC50,HIV-2 [2],7.8 µg/mL
CC[C@H](CO)Nc1nc(N(C)CCc2ccc(O)c(O)c2)c2ncn(C(C)C)c2n1,IC50,CDC2,950 nM
same,IC50,IκB-α,3200 nM
same,IC50,MPF activity,1120 nM
same,IC50,DNA synthesis,1300 nM
same,IC50,[3],6000 nM
same,IC50,B16 melanoma,6000 nM
same,EC50,normal human lymphocytes,1500 nM
Nc1nc(NC(CO)c2ccccc2)c2ncn(CCOCP(=O)(O)O)c2n1 (racemic),HIV-2 CEM IC50,HIV-2 [2],>20 µg/mL
same,HIV-1 CEM IC50,HIV-1 [4],>20 µg/mL
CC(Cn1cnc2c(NCc3ccc(O)c(O)c3)nc(N)nc21)OCP(=O)(O)O (stereo not shown),HIV-2 CEM IC50,HIV-2 [2],8.3 µg/mL
same,HIV-1 MT-4 IC50,HIV-1 [5],3.2 µg/mL
Nc1nc(NCc2ccc(O)c(O)c2)c2ncn(CCOCP(=O)(O)O)c2n1,HIV-2 CEM IC50,HIV-2 [2],>20 µg/mL
same,HIV-1 CEM IC50,HIV-1 [4],>20 µg/mL
CN(CCc1ccc(O)c(O)c1)c1nc(N)nc2c1ncn2CCOCP(=O)(O)O,MSV IC50,MSV,0.9 µg/mL
same,HIV-2 MT-4 IC50,HIV-2 [1],32 µg/mL
same,HIV-2 CEM IC50,HIV-2 [2],>20 µg/mL
same,HIV-1 CEM IC50,HIV-1 [4],>20 µg/mL
C[C@H](Cn1cnc2c(N)nc(N)nc21)OCP(=O)(O)O [(R)-PMPD],selectivity index (ratio cytotoxic dose/antivirally active dose),HIV-2 [1]; HIV-2,higher than 2000
same,EC50 retrovirus replication,retroviruses,0.01 to 0.1 µg/mL
same,selectivity index (ratio cytotoxic dose/antivirally active dose),HIV-1 [5]; HIV-1,higher than 2000
same,toxicity to the cells,the cells,not toxic
CC(Cn1cnc2c(NC(CO)c3ccccc3)nc(N)nc21)OCP(=O)(O)O (stereo not shown),HIV-2 CEM IC50,HIV-2 [2],>20 µg/mL
same,HIV-1 MT-4 IC50,HIV-1 [5],10.1 µg/mL
same,HIV-1 CEM IC50,HIV-1 [4],>20 µg/mL
CC(C)n1cnc2c(NC(CO)c3ccccc3)nc(NCCCO)nc21 (racemic),IC50,MPF activity,1500 nM
same,IC50,DNA synthesis,1400 nM
